Measurements as given in ChEMBL document CHEMBL1154241, “A QSAR study on relationship between structure of sulfonamides and their carbonic anhydrase inhibitory activity using the eigenvalue (EVA) method” (Eur J Med Chem, 2009).

target: Carbonic anhydrase 2 (Homo sapiens) (UniProt P00918)
Description: Inhibition of carbonic anhydrase 2 assessed as inhibition of carbon dioxide hydration

| SMILES | logKi |
| --- | --- |
| NS(=O)(=O)c1ccc(C/N=C/c2ccccc2[N+](=O)[O-])cc1 | 2.48 |
| CC(=O)Nc1ccc(/C=N/Cc2ccc(S(N)(=O)=O)cc2)cc1 | 2.04 |
| NS(=O)(=O)c1ccc(C/N=C/c2ccc([N+](=O)[O-])cc2)cc1 (stereo in doubt; 60) | 2.15 |
| COc1ccc(/C=N/Cc2ccc(S(N)(=O)=O)cc2)cc1 | 2.08 |
| NS(=O)(=O)c1ccc(/N=C/C=C/c2ccccc2)cc1 | 1.7 |
| COc1cc(/C=N/c2ccc(S(N)(=O)=O)cc2)ccc1C(C)=O | 2 |
| NS(=O)(=O)c1ccc(/N=C/C2=C(Cl)CCC=C2)cc1 | 2.46 |
| CC(=O)Nc1ccc(/C=N/CCc2ccc(S(C)(=O)=O)cc2)cc1 | 1.6 |
| NS(=O)(=O)c1ccc(C/N=C/c2ccc([N+](=O)[O-])cc2)cc1 (stereo in doubt; 45) | 1.3 |
| NS(=O)(=O)c1ccc(C/N=C/c2ccccc2Cl)cc1 | 1.95 |
| NS(=O)(=O)c1ccc(/N=C/c2ccc([N+](=O)[O-])cc2)cc1 | 1.7 |
| NS(=O)(=O)c1ccc(/N=C/c2cccc([N+](=O)[O-])c2)cc1 | 2.25 |
| COc1ccccc1/C=N/c1ccc(S(N)(=O)=O)cc1 | 2.23 |
| CS(=O)(=O)c1ccc(CC/N=C/c2ccccc2Cl)cc1 | 2.32 |
| NS(=O)(=O)c1ccc(C/N=C/c2ccccc2O)cc1 | 2.11 |
| CC(=O)Nc1ccc(/C=N/c2ccc(S(N)(=O)=O)cc2)cc1 | 2.04 |
| CS(=O)(=O)/N=C/C1=C(O)CCC=C1 | 1.6 |
| NS(=O)(=O)c1ccc(/N=C/c2ccc(Cl)cc2)cc1 | 2.45 |
